# Measurements reported in US20240376099A1, “COMPOUNDS AND COMPOSITIONS AS INHIBITORS OF ENDOSOMAL TOLL-LIKE RECEPTORS” (Novartis AG, priority 2016, published 2024).
# Biological target: T1, TLR8 (Homo sapiens, UniProt Q9NR97)
# T1 sequence (Q9NR97 27-1041): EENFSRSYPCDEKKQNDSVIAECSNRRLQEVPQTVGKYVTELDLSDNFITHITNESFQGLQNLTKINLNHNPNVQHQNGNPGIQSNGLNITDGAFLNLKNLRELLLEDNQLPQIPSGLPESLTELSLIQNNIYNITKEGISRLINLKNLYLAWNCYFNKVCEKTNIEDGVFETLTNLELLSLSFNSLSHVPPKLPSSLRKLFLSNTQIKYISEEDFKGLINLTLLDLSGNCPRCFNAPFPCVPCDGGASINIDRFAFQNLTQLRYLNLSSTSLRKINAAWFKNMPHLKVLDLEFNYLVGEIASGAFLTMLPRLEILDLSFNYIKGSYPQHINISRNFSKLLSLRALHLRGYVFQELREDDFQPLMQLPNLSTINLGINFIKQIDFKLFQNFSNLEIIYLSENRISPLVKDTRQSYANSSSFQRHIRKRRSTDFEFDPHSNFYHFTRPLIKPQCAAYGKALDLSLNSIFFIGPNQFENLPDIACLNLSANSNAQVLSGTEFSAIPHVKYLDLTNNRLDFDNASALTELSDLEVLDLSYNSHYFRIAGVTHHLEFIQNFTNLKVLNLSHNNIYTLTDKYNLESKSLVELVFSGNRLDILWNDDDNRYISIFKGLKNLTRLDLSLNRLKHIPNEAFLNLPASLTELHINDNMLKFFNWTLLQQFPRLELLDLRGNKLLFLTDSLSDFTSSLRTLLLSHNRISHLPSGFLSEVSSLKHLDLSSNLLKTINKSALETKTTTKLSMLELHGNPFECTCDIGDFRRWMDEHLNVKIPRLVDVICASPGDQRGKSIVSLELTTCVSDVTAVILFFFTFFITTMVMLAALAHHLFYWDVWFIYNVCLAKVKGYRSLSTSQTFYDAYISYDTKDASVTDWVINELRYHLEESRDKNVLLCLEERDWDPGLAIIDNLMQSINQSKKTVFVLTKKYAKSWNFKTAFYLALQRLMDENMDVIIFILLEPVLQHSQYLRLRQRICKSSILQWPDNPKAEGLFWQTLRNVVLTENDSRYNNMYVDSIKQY
# Assay: huPBMC TLR8 Antagonist IL-6 TR-FRET Assay
# Type: cell-based
# Set-up: Fresh blood was collected from normal human donors; endogenous in cells; host or cells: human PBMCs from fresh donor blood
# Conditions: human PBMCs stimulated with ssRNA40 1 μg/ml (DOTAP), 14-16 hrs; IL-6 TR-FRET read-out
# Outline: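 Human PBMCs from fresh donor blood (150,000 cells/well) stimulated 14–16 h at 37 °C with DOTAP-complexed ssRNA40 (final 1 μg/ml for TLR8, 10 μg/mL for TLR7) or ODN2216 (final 0.3 μM, TLR9), 0.25% DMSO, ten-point 1/3 compound dilutions. Supernatant IL-6 read by HTRF (TLR8); IFNα by IFNα2b AlphaLISA (TLR7/TLR9).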
row,SMILES,IC50 [nM]
1,"Cc1nc(N2CCc3c(c(C)nn3CC34CCC(NCC5COC5)(CC3)CC4)C2)c2c(n1)c(C)nn2C [compound 23, 4-((3-methyl-5-(1,3,5-trimethyl-1H-pyrazolo[4,3-c]pyrimidin-7-yl)-4,5,6,7-tetrahydro-1H-pyrazolo[4,3-c]pyridin-1-yl)methyl)-N-(oxetan-3-ylmethyl)bicyclo[2.2.2]octan-1-amine]",373
2,"Cc1nc(N2CCc3c(c(C)nn3CC34CCC(N5CCOCC5)(CC3)CC4)C2)c2c(n1)c(C)nn2C [compound 25, 4-(4-((3-methyl-5-(1,3,5-trimethyl-1H-pyrazolo[4,3-d]pyrimidin-7-yl)-4,5,6,7-tetrahydro-1H-pyrazolo[4,3-c]pyridin-1-yl)methyl)bicyclo[2.2.2]octan-1-yl)morpholine]",17
3,"Cc1nc(N2CCc3c(c(C)nn3CC34CCC(NC5CCC5)(CC3)CC4)C2)c2c(n1)c(C)nn2C [compound 27, N-cyclobutyl-4-((3-methyl-5-(1,3,5-trimethyl-1H-pyrazolo[4,3-d]pyrimidin-7-yl)-4,5,6,7-tetrahydro-1H-pyrazolo[4,3-c]pyridin-1-yl)methyl)bicyclo[2.2.2]octan-1-amine]",14
4,"Cc1nc(N2CCc3c(c(C)nn3CC34CCC(N(C5CCC5)C5CCC5)(CC3)CC4)C2)c2c(n1)c(C)nn2C [compound 28, N,N-dicyclobutyl-4-((3-methyl-5-(1,3,5-trimethyl-1H-pyrazolo[4,3-d]pyrimidin-7-yl)-4,5,6,7-tetrahydro-1H-pyrazolo[4,3-c]pyridin-1-yl)methyl)bicyclo[2.2.2]octan-1-amine]",641
5,"Cc1nc(N2CCc3c(c(C)nn3CC34CCC(NCC5(CO)COC5)(CC3)CC4)C2)c2c(n1)c(C)nn2C [compound 31, (3-(((4-((3-methyl-5-(1,3,5-trimethyl-1H-pyrazolo[4,3-d]pyrimidin-7-yl)-4,5,6,7-tetrahydro-1H-pyrazolo[4,3-c]pyridin-1-yl)methyl)bicyclo[2.2.2]octan-1-yl)amino)methyl)oxetan-3-yl)methanol]",27
6,"Cc1nc(N2CCc3c(c(C)nn3CC34CCC(NC(=O)[C@@H]5COCCN5)(CC3)CC4)C2)c2c(n1)c(C)nn2C [compound 33, (S)-N-(4-((3-methyl-5-(1,3,5-trimethyl-1H-pyrazolo[4,3-d]pyrimidin-7-yl)-4,5,6,7-tetrahydro-1H-pyrazolo[4,3-c]pyridin-1-yl)methyl)bicyclo[2.2.2]octan-1-yl)morpholine-3-carboxamide]",72
7,"Cc1nc(N2CCc3c(c(C)nn3CC34CCC(N5CCOCC5)(CC3)CC4)C2)c2c(C)noc2n1 [compound 37, 3,6-dimethyl-4-(3-methyl-1-((4-morpholinobicyclo[2.2.2]octan-1-yl)methyl)-6,7-dihydro-1H-pyrazolo[4,3-c]pyridin-5(4H)-yl)isoxazolo[5,4-d]pyrimidine]",79
8,"Cc1nc(N2CCc3c(c(C)nn3CC34CCC(N5CCCCC5)(CC3)CC4)C2)c2c(n1)c(C)nn2C [compound 38, 1,3,5-trimethyl-7-(3-methyl-1-((4-(piperidin-1-yl)bicyclo[2.2.2]octan-1-yl)methyl)-6,7-dihydro-1H-pyrazolo[4,3-c]pyridin-5(4H)-yl)-1H-pyrazolo[4,3-d]pyrimidine]",31
9,"Cc1nc(N2CCc3c(c(C)nn3CC34CCC(N5CCCCC5)(CC3)CC4)C2)c2cnn(C)c2n1 [compound 39, 1,6-dimethyl-4-(3-methyl-1-((4-(piperidin-1-yl)bicyclo[2.2.2]octan-1-yl)methyl)-6,7-dihydro-1H-pyrazolo[4,3-c]pyridin-5(4H)-yl)-1H-pyrazolo[3,4-c]pyrimidine]",119
10,"[2H]C([2H])([2H])N(C([2H])([2H])[2H])C12CCC(Cn3nc(C)c4c3CCN(c3nc(C)nc5c(C)nn(C)c35)C4)(CC1)CC2 [compound 40, 4-((3-methyl-5-(1,3,5-trimethyl-1H-pyrazolo[4,3-d]pyrimidin-7-yl)-4,5,6,7-tetrahydro-1H-pyrazolo[4,3-c]pyridin-1-yl)methyl)-N,N-bis(trideuteromethyl)bicyclo[2.2.2]octan-1-amine]",314
11,"Cc1nn(CC23CCC(N)(CC2)CC3)c2c1CN(c1ccnc3[nH]ncc13)CC2 [compound 41, 4-((3-methyl-5-(1H-pyrazolo[3,4-b]pyridin-4-yl)-4,5,6,7-tetrahydro-1H-pyrazolo[4,3-c]pyridin-1-yl)methyl)bicyclo[2.2.2]octan-1-amine]",4590
12,"Cc1c2c(nn1CC13CCC(N)(CC1)CC3)CCN(c1ccnc3[nH]ncc13)C2 [compound 42, 4-((3-methyl-5-(1H-pyrazolo[3,4-b]pyridin-4-yl)-4,5,6,7-tetrahydro-2H-pyrazolo[4,3-c]pyridin-2-yl)methyl)bicyclo[2.2.2]octan-1-amine]",> 10000
13,"Cc1cc(N2CCc3c(c(C)nn3CC34CCC(N)(CC3)C4)C2)c2cnn(C)c2n1 [compound 44, 4-((5-(1,6-dimethyl-1H-pyrazolo[3,4-b]pyridin-4-yl)-3-methyl-4,5,6,7-tetrahydro-1H-pyrazolo[4,3-c]pyridin-1-yl)methyl)bicyclo[2.2.1]heptan-1-amine]",861

# Further lines, results first:
row,IC50 [nM],SMILES
1,31,"CCNCC(=O)NC12CCC(Cn3nc(C)c4c3CCN(c3nc(C)nc5[nH]ncc35)C4)(CC1)CC2 [compound 20, 2-(ethylamino)-N-(4-((3-methyl-5-(6-methyl-1H-pyrazolo[3,4-d]pyrimidin-4-yl)-4,5,6,7-tetrahydro-1H-pyrazolo[4,3-c]pyridin-1-yl)methyl)bicyclo[2.2.2]octan-1-yl)acetamide]"
2,36,"Cc1nc(N2CCc3c(c(C)nn3CC34CCC(N5CCOCC5)(CC3)CC4)C2)c2cn[nH]c2n1 [compound 21, 4-(4-((3-methyl-5-(6-methyl-1H-pyrazolo[3,4-d]pyrimidin-4-yl)-4,5,6,7-tetrahydro-1H-pyrazolo[4,3-c]pyridin-1-yl)methyl)bicyclo[2.2.2]octan-1-yl)morpholine]"
3,14,"CCNCC(=O)NC12CCC(Cn3nc(C)c4c3CCN(c3nc(C)nc5c(C)nn(C)c35)C4)(CC1)CC2 [compound 22, 2-(ethylamino)-N-(4-((3-methyl-5-(1,3,5-trimethyl-1H-pyrazolo[4,3-c]pyrimidin-7-yl)-4,5,6,7-tetrahydro-1H-pyrazolo[4,3-c]pyridin-1-yl)methyl)bicyclo[2.2.2]octan-1-yl)acetamide]"
4,10,"Cc1nc(N2CCc3c(c(C)nn3CC34CCC(NC(=O)CCN(C)C)(CC3)CC4)C2)c2c(n1)c(C)nn2C [compound 24, 3-(dimethyalmino)-N-(4-((3-methyl-5-(1,3,5-trimethyl-1H-pyrazolo[4,3-d]pyrimidin-7-yl)-4,5,6,7-tetrahydro-1H-pyrazolo[4,3-c]pyridin-1-yl)methyl)bicyclo[2.2.2]octan-1-yl)propanamide]"
5,16,"Cc1nc(N2CCc3c(c(C)nn3CC34CCC(N5CCCCC5)(CC3)CC4)C2)c2cn[nH]c2n1 [compound 29, 6-methyl-4-(3-methyl-1-((4-(piperidin-1-yl)bicyclo[2.2.2]octan-1-yl)methyl)-6,7-dihydro-1H-pyrazolo[4,3-c]pyridin-5(4H)-yl)-1H-pyrazolo[3,4-d]pyrimidine]"
6,324,"Cc1nc(N2CCc3c(c(C)nn3CC34CCC(N5CCCC5)(CC3)CC4)C2)c2cn[nH]c2n1 [compound 30, 6-methyl-4-(3-methyl-1-((4-(pyrrolidin-1-yl)bicyclo[2.2.2]octan-1-yl)methyl)-6,7-dihydro-1H-pyrazolo[4,3-c]pyridin-5(4H)-yl)-1H-pyrazolo[3,4-d]pyrimidine]"
7,29,"Cc1nc(N2CCc3c(c(C)nn3CC34CCC(NC(=O)[C@@H]5CNCCO5)(CC3)CC4)C2)c2c(n1)c(C)nn2C [compound 34, (S)-N-(4-((3-methyl-5-(1,3,5-trimethyl-1H-pyrazolo[4,3-d]pyrimidin-7-yl)-4,5,6,7-tetrahydro-1H-pyrazolo[4,3-c]pyridin-1-yl)methyl)bicyclo[2.2.2]octan-1-yl)morpholine-2-carboxamide]"
8,80,"Cc1nc(N2CCc3c(c(C)nn3CC34CCC(NC(=O)[C@H]5CNCCO5)(CC3)CC4)C2)c2c(n1)c(C)nn2C [compound 36, (R)-N-(4-((3-methyl-5-(1,3,5-trimethyl-1H-pyrazolo[4,3-d]pyrimidin-7-yl)-4,5,6,7-tetrahydro-1H-pyrazolo[4,3-c]pyridin-1-yl)methyl)bicyclo[2.2.2]octan-1-yl)morpholine-2-carboxamide]"
